No end group written: not given here.
Key:
FcγIIb = experiment: Reverse ELISA: inhibition of PAP immune complex binding to FcγIIb coated plates; details: PAP pre-incubated with peptide one hour; lower OD = more inhibition; positive control 1.394
Excerpt: (§1) For this reason, a “reverse ELISA” technique was used to assess binding of the Fc region to ligands that bind to immune complexed IgG Fc. In a reverse ELISA, the enzyme (e.g., HRP) is not covalently conjugated to the Fc portion of the secondary antibody. Rather, a preformed immune complex of peroxidase-rabbit (or mouse) anti-peroxidase IgG (“PAP” complex) is used. […] In these experiments, an Fe CH2-CH3 cleft binding ligand (e.g., purified human C1q) was bound to microwell plates. In the absence of competitor, PAP complexes bound to the immobilized ligand and the reaction between HRP and its substrate produced a signal. This signal was reduced by polypeptides and compounds provided herein that inhibited PAP binding to the immobilized ligand.
(§2) Once the reverse ELISA protocol was established using the C1q assay, the assay was redesigned using FcγIIa, FcγIIb, and FcγIII in place of C1q. Highly purified FcγIIa, FcγIIb and FcγIII were immunoadsorbed onto plastic microwells. After optimizing the FcγR reverse ELISA system, simple competitive inhibition experiments using polypeptides provided herein were conducted to investigate their ability to inhibit binding of immune complexes to purified FcγR.
(§3) Falcon microtiter plates were coated with 1:10 dilutions of highly purified FcγIIa, FcγIIb and FcγIII and incubated for 24 hours. The plates were washed and then blocked with 5×BSA blocking solution (Alpha Diagnostic International, San Antonio, Tex.) for 24 hours. PAP immune complexes were formed as described above. PAP (100 μl) were pre-incubated with 100 μl of peptide for one hour. PAP/peptide mixtures were added to the FcγR coated plates and incubated for one hour. After washing, plates were incubated with ABTS substrate for 15 minutes and read at 405 nm.

human C1q = experiment: Reverse ELISA: inhibition of PAP immune complex binding to C1q coated plates; details: for OD 405 nm: PAP pre-incubated with peptide or C1q one hour, 30 min on C1q plates, lower OD = more inhibition, positive control 2.355; for inhibition of C1q binding (in words): ranking among peptides of Table 1
Excerpt: as §1
PAP complexes were formed mixing 2 μl of rabbit anti-peroxidase (Sigma Chemicals, St. Louis, Mo.) with 50 μl of peroxidase (Sigma-Aldrich, St. Louis, Mo.) in 1 ml distilled water. PAP (100 μl) were pre-incubated with 100 μl of peptide for one hour, 100 μl were pre-incubated with 100 μl of peptide or human C1q (Quidel Corp., San Diego, Calif.) for one hour. The C1q/PAP and peptide/PAP mixtures (100 μl) were incubated with C1q coated plates for 30 minutes. After washing, plates were incubated with ATBS (Quidel Corp.) for 15 minutes and read at 405 nm.

FcγIIa = experiment: Reverse ELISA: inhibition of PAP immune complex binding to FcγIIa coated plates; details: PAP pre-incubated with peptide one hour; lower OD = more inhibition; positive control 1.599
Excerpt: as §1, §2, §3

FcγIII = experiment: Reverse ELISA: inhibition of PAP immune complex binding to FcγIII coated plates; details: PAP pre-incubated with peptide one hour; lower OD = more inhibition; positive control 1.588
Excerpt: as §1, §2, §3

FcR = experiment: FcγR reverse ELISA, overall statement on FcR binding to PAP; details: ranking among peptides of Table 2
Method: as §2, §3

human wtSOD1 = experiment: Reverse ELISA: inhibition of immune complexed IgG (PAP) binding to wt SOD1 coated plates; details: for wt SOD1 (OD read at 405 nm): PAP pre-incubated with peptide one hour, 60 min on plates, positive control 2.900; for inhibition of wt SOD1 binding to PAP (in words): ranking among peptides of Table 3
Method: (§4) PAP complexes were prepared as described in Example 2. PAP (100 μl) were pre-incubated with 100 μl of peptide for one hour, and control (200 μl of PAP) also was incubated for one hour. 100 μl of either PAP or PAP/peptide was added to Falcon microtiter plates that had been coated for 24 hours with either 0.8 μg/ml human wtSOD1 (Sigma-Aldrich) or apo (non Cu, Zn containing) monomeric mutant SOD1 C57S (mSOD1C57S). The PAP or peptide/PAP mixtures (100 μl) were added after one hour to either wt SOD1 or mSOD1C57S coated plates for 60 minutes. After washing, plates were incubated with ATBS for 15 minutes and read at 405 nm.

[1] = test system: apo monomeric mutant SOD1 C57S (mSOD1C57S); experiment: Reverse ELISA: inhibition of immune complexed IgG (PAP) binding to mSOD1C57S coated plates; details: for mSOD1C57S (OD read at 405 nm): PAP pre-incubated with peptide one hour, 60 min on plates, positive control […]; for inhibition of mSOD1C57S binding to PAP (in words): ranking among peptides of Table 3
Method: as §4

IgG Fc = experiment: Alanine substitution, binding of SEQ ID NO:16 to IgG Fc; details: alanine substitution of IgG Fc Asn-434, His-435, or Tyr-436
FcγIII (highly purified) = experiment: reverse ELISA: PAP without competitor on FcγIII-coated plate
[2] = biological target: human C1q (Quidel Corp.) (human) (UniProt P02745); experiment: reverse ELISA: PAP without competitor on C1q-coated plate
human C1q (Quidel Corp.) (human), sequence (P02745 23-245 limits assumed, chain 1 of 3): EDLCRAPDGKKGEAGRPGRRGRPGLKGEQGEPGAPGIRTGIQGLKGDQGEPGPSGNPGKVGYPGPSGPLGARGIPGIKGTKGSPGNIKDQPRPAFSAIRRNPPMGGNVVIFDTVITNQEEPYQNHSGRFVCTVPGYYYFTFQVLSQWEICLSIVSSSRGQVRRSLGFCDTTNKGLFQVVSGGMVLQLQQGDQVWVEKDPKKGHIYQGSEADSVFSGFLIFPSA
human C1q (Quidel Corp.) (human), sequence (P02746 28-253 limits assumed, chain 2 of 3, further chain): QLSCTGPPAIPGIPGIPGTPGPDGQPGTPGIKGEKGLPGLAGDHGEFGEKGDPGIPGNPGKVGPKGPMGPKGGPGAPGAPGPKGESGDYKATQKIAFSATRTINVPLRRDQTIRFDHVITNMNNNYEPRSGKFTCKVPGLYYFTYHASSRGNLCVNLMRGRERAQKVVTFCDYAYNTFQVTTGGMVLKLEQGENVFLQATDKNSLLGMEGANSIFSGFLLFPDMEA
human C1q (Quidel Corp.) (human), sequence (P02747 29-245 limits assumed, chain 3 of 3, further chain): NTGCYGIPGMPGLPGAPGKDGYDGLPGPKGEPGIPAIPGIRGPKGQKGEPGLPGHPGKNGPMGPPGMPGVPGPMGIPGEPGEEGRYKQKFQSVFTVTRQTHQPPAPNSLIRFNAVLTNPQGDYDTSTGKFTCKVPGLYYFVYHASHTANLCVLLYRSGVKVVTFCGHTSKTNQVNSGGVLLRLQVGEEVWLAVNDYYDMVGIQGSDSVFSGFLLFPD

FcγIIb (highly purified) = experiment: reverse ELISA: PAP without competitor on FcγIIb-coated plate
FcγIIb (highly purified), sequence (P31994 43-310): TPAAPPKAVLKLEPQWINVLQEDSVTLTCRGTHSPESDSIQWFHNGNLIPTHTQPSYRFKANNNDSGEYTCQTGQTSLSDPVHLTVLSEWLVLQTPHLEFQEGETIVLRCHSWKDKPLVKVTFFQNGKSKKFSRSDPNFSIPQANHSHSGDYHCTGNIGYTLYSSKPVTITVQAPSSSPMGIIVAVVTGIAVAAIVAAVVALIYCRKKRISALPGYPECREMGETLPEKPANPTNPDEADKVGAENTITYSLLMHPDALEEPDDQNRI

FcγIIa (highly purified) = experiment: reverse ELISA: PAP without competitor on FcγIIa-coated plate
FcγIIa (highly purified), sequence (P12318 34-317): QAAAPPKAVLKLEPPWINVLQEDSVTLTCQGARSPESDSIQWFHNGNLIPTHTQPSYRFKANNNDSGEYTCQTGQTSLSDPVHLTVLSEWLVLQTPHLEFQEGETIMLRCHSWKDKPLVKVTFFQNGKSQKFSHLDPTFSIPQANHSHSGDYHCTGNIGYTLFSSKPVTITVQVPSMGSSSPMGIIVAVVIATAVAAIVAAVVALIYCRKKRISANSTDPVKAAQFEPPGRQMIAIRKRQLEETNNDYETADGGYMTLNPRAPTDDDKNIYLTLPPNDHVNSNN

[3] = biological target: preformed immune complex of peroxidase-rabbit anti-peroxidase IgG (PAP complex) (rabbit; horseradish) (UniProt P00433); experiment: competition reverse ELISA: PAP pre-incubated with peptide, residual PAP binding to C1q-coated plate (competitor: immobilized C1q)
preformed immune complex of peroxidase-rabbit anti-peroxidase IgG (PAP complex) (rabbit; horseradish), sequence (P00433 31-338, one chain of several): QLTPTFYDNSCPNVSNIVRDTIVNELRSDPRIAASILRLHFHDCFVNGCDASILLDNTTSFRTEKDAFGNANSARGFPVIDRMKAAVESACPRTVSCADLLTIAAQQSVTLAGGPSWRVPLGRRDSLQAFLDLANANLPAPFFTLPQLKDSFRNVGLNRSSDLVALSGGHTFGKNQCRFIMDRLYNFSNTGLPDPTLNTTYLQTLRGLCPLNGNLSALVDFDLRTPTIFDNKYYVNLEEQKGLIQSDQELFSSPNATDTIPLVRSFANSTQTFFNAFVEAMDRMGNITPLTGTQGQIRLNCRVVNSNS

[4] = biological target: preformed immune complex of peroxidase-rabbit anti-peroxidase IgG (PAP complex) (rabbit; horseradish) (UniProt P00433); experiment: competition reverse ELISA: PAP pre-incubated with peptide, residual PAP binding to wt SOD1-coated plate (competitor: immobilized wt SOD1)
[5] = biological target: preformed immune complex of peroxidase-rabbit anti-peroxidase IgG (PAP complex) (rabbit; horseradish) (UniProt P00433); experiment: competition reverse ELISA: PAP pre-incubated with peptide, residual PAP binding to FcγIIa-coated plate (competitor: immobilized FcγIIa)
[6] = biological target: preformed immune complex of peroxidase-rabbit anti-peroxidase IgG (PAP complex) (rabbit; horseradish) (UniProt P00433); experiment: competition reverse ELISA: PAP pre-incubated with peptide, residual PAP binding to FcγIIb-coated plate (competitor: immobilized FcγIIb)
[7] = biological target: preformed immune complex of peroxidase-rabbit anti-peroxidase IgG (PAP complex) (rabbit; horseradish) (UniProt P00433); experiment: competition reverse ELISA: PAP pre-incubated with peptide, residual PAP binding to mSOD1C57S-coated plate (competitor: immobilized mSOD1C57S)
[8] = biological target: preformed immune complex of peroxidase-rabbit anti-peroxidase IgG (PAP complex) (rabbit; horseradish) (UniProt P00433); experiment: competition reverse ELISA: PAP pre-incubated with peptide, residual PAP binding to FcγIII-coated plate (competitor: immobilized FcγIII)

preformed immune complex of peroxidase-rabbit anti-peroxidase IgG (PAP complex), sequence (P00433 31-338, one chain of several): as above

APPCAFHLGELVWCT (not fully specified; cysteine pairing not given here) [SEQ ID NO:15]
FcγIIb (OD read at 405 nm) (FcγIIb): 0.380
OD 405 nm (human C1q): 0.983
FcγIIa (OD read at 405 nm) (FcγIIa): 0.605
FcγIII (OD read at 405 nm) (FcγIII): 0.880

APPCARHLGELVWCT [SEQ ID NO:14]
FcγIIb (OD read at 405 nm) (FcγIIb): 0.768
OD 405 nm (human C1q): 0.567
inhibition of C1q binding (in words) (human C1q): next best result
FcγIIa (OD read at 405 nm) (FcγIIa): 0.956
FcγIII (OD read at 405 nm) (FcγIII): 0.709

APPCAWHLGELVWCT [SEQ ID NO:13]
FcγIIb (OD read at 405 nm) (FcγIIb): 0.562
OD 405 nm (human C1q): 1.148
FcγIIa (OD read at 405 nm) (FcγIIa): 0.658
FcγIII (OD read at 405 nm) (FcγIII): 0.530

Ala-Pro-Pro-Asp-Cys-Ala-Trp-His-Leu-Gly-Glu-Leu-Val-Trp-Cys-Thr (APPDCAWHLGELVWCT) [SEQ ID NO:16]
FcγIIb (OD read at 405 nm) (FcγIIb): 0.496
inhibition of FcR binding to PAP (in words) (FcR): greatest inhibition
OD 405 nm (human C1q): 0.389
inhibition of C1q binding (in words) (human C1q): greatest inhibition
wt SOD1 (OD read at 405 nm) (human wtSOD1): 0.277
inhibition of wt SOD1 binding to PAP (in words) (human wtSOD1): greatest inhibition
inhibition of wt SOD1 binding to PAP (in words) (human wtSOD1; listed as 16): best inhibition
mSOD1C57S (OD read at 405 nm) [1]: 0.226
inhibition of mSOD1C57S binding to PAP (in words) [1]: greatest inhibition
inhibition of mSOD1C57S binding to PAP (in words) ([1]; listed as 16): best inhibition
ΔΔG, disruption of binding (IgG Fc): ≥ 1.5 kcal/mol
FcγIIa (OD read at 405 nm) (FcγIIa): 0.509
FcγIII (OD read at 405 nm) (FcγIII): 0.670

Asp-Cys-Ala-Phe-His-Leu-Gly-Glu-Leu-Val-Trp-Cys-Thr (DCAFHLGELVWCT) [SEQ ID NO:3]
FcγIIb (OD read at 405 nm) (FcγIIb): 0.510
OD 405 nm (human C1q): 0.859
FcγIIa (OD read at 405 nm) (FcγIIa): 0.660
FcγIII (OD read at 405 nm) (FcγIII): 0.810

Asp-Cys-Ala-Trp-His-Leu-Gly-Glu-Leu-Val-Trp-Cys-Thr [SEQ ID NO:2]
FcγIIb (OD read at 405 nm) (FcγIIb): 0.532
OD 405 nm (human C1q): 1.100
wt SOD1 (OD read at 405 nm) (human wtSOD1): 0.292
inhibition of wt SOD1 binding to PAP (in words) (human wtSOD1; listed as 2): inhibited
mSOD1C57S (OD read at 405 nm) [1]: 0.592
inhibition of mSOD1C57S binding to PAP (in words) ([1]; listed as 2): inhibited
FcγIIa (OD read at 405 nm) (FcγIIa): 0.561
FcγIII (OD read at 405 nm) (FcγIII): 0.741

preformed immune complex of peroxidase-rabbit anti-peroxidase IgG (PAP complex) (from UniProt P00433 31-338) (antibody)
OD 405 nm (FcγIII (highly purified)): 1.59 OD 405 nm
OD 405 nm [2]: 2.35 OD 405 nm
OD 405 nm (FcγIIb (highly purified)): 1.39 OD 405 nm
OD 405 nm (FcγIIa (highly purified)): 1.6 OD 405 nm

APPDCAWHLGELVWCT [Peptide … (SEQ ID NO:16)]
OD 405 nm [3]: 0.389 OD 405 nm
OD 405 nm [4]: 0.277 OD 405 nm
OD 405 nm [5]: 0.509 OD 405 nm
OD 405 nm [6]: 0.496 OD 405 nm
OD 405 nm [7]: 0.226 OD 405 nm
OD 405 nm [8]: 0.67 OD 405 nm

APPCAFHLGELVWCT (not fully specified; cysteine pairing not given here) [Peptide … (SEQ ID NO:15)]
OD 405 nm [3]: 0.983 OD 405 nm
OD 405 nm [5]: 0.605 OD 405 nm
OD 405 nm [6]: 0.38 OD 405 nm
OD 405 nm [8]: 0.88 OD 405 nm

APPCAWHLGELVWCT (not fully specified; cysteine pairing not given here) [Peptide … (SEQ ID NO:13)]
OD 405 nm [3]: 1.15 OD 405 nm
OD 405 nm [5]: 0.658 OD 405 nm
OD 405 nm [6]: 0.562 OD 405 nm
OD 405 nm [8]: 0.53 OD 405 nm

DCAFHLGELVWCT [Peptide … (SEQ ID NO:3)]
OD 405 nm [3]: 0.859 OD 405 nm
OD 405 nm [5]: 0.66 OD 405 nm
OD 405 nm [6]: 0.51 OD 405 nm
OD 405 nm [8]: 0.81 OD 405 nm

APPCARHLGELVWCT (not fully specified; cysteine pairing not given here) [Peptide … (SEQ ID NO:14)]
OD 405 nm [3]: 0.567 OD 405 nm
OD 405 nm [5]: 0.956 OD 405 nm
OD 405 nm [6]: 0.768 OD 405 nm
OD 405 nm [8]: 0.709 OD 405 nm

Reference: patent publication US20080187490A1, “Methods for Treating Amyotrophic Lateral Sclerosis” (priority 2005, published 2008)
